Earlier results, collected in paper PMC12181400, “Leveraging viral genome sequences and machine learning models for identification of potentially selective antiviral agents” (Communications Chemistry, 2025).
Like-named read-outs stand apart in the source and are kept apart here.

Assays:
Conditions in all cases: cited from earlier work
[1] = tested on: cell viability (tox21-ap1-agonist-p1)
[2] = tested on: cell viability (tox21-ar-mda-kb2-luc-agonist-p3)
[3] = tested on: cell viability (tox21-ar-mda-kb2-luc-antagonist-p2)
[4] = tested on: cell viability (tox21-are-bla-p1)
[5] = tested on: cell viability (tox21-car-agonist-p1)
[6] = tested on: cell viability (tox21-car-antagonist-p1)
[7] = curve rank −9 to 9, 0 = inactive, ref NCATS Tox21 public data browser

Row | Structure (SMILES) | tox21-ap1-agonist-p1-viability (curve rank) [1] | tox21-ar-mda-kb2-luc-agonist-p3-viability (curve rank) [2] | tox21-ar-mda-kb2-luc-antagonist-p2-viability (curve rank) [3] | tox21-are-bla-p1-viability (curve rank) [4] | tox21-car-agonist-p1-viability (curve rank) [5] | tox21-car-antagonist-p1-viability (curve rank) [6] | tox21-ap1-agonist-p1-viability (curve rank) [1, 7] | tox21-ar-mda-kb2-luc-agonist-p3-viability (curve rank) [2, 7] | tox21-ar-mda-kb2-luc-antagonist-p2-viability (curve rank) [3, 7] | tox21-are-bla-p1-viability (curve rank) [4, 7] | tox21-car-agonist-p1-viability (curve rank) [5, 7] | tox21-car-antagonist-p1-viability (curve rank) [6, 7]
1 | Cc1ncc([N+](=O)[O-])n1CC(O)CCl (stereo not drawn) [Ornidazole] | 0 | 0 | 0 | 0 | 0 | 0 |  |  |  |  |  | 
2 | NS(=O)(=O)c1cc2c(cc1Cl)N=C(CSCc1ccccc1)NS2(=O)=O [Benzthiazide] | 0 | 0 | 0 | 0 | 0 | 0 |  |  |  |  |  | 
3 | CN(C(=O)c1c(O)c2ccccc2n(C)c1=O)c1ccccc1 [Roquinimex] | 0 | 0 | 0 | 0 | 0 | 0 |  |  |  |  |  | 
4 | Cc1scc2c1N(C(=O)CN1CCN(C)CC1)c1ccccc1NC2=O [Telenzepine] | 0 | 0 | 0 | 0 | 0 | 0 |  |  |  |  |  | 
5 | Nc1c2c(nc3ccccc13)CCCC2O.O=C(O)/C=C\C(=O)O (stereo not drawn) [Hydroxytacrine maleate] |  |  |  |  |  |  | 0 | 0 | 0 | 0 | 0 | 0
6 | COc1ccc(-c2cc(=O)c3c(O)cc(O[C@@H]4O[C@H](CO[C@@H]5O[C@@H](C)[C@H](O)[C@@H](O)[C@H]5O)[C@@H](O)[C@H](O)[C@H]4O)cc3o2)cc1O [Diosmin] | 0 | 0 | 0 | 0 | 0 | 0 |  |  |  |  |  | 
7 | OCC(O)CN1CCN(c2ccccc2)CC1 (stereo not drawn) [Dropropizine] |  |  |  |  |  |  | 0 | 0 | 0 | 0 | 0 | 0
8 | O=C1NS(=O)(=O)c2ccccc21 [Saccharin] | 0 | 0 | 0 | 0 | 0 | 0 |  |  |  |  |  | 
9 | Nc1nnc(-c2cccc(Cl)c2Cl)c(N)n1 [Lamotrigine] | 0 | 0 | 0 | 0 | -0.67 | 0 |  |  |  |  |  | 
10 | CC(C)N(CCC(C(N)=O)(c1ccccc1)c1ccccn1)C(C)C (stereo not drawn) [Disopyramide] | 0 | 0 | 0 | 0 | 0 | 0 |  |  |  |  |  | 
11 | Oc1ccc(Cl)cc1 [4-Chlorophenol] |  |  |  |  |  |  | 0 | 0 | 0 | 0 | 0 | 0
12 | Nc1ccc(S(=O)(=O)Nc2ccnn2-c2ccccc2)cc1 [Sulfaphenazole] | 0 | 0 | 0 | 0 | 0 | 0 |  |  |  |  |  | 
13 | Nc1ccc(S(=O)(=O)Nc2ccccn2)cc1 [Sulfapyridine] | 0 | 0 | 0 | 0 | 0 | 0 |  |  |  |  |  | 
14 | O=C1c2ccccc2S(=O)(=O)N1CCCCN1CCN(c2ncccn2)CC1 [Ipsapirone] | 0 | 0 | 0 | 0 | 0 | 0 |  |  |  |  |  | 
15 | CCN1CCC[C@H]1CNC(=O)c1c(OC)ccc(Br)c1OC [Remoxipride] | 0 | 0 | 0 | 0 | 0 | 0 |  |  |  |  |  | 
16 | C/C(=C(\CCOP(=O)(O)O)SC(=O)c1ccccc1)N(C=O)Cc1cnc(C)nc1N [Benfotiamine] | 0 | 0 | 0 | 0 | 0 | 0 |  |  |  |  |  | 
17 | CCCCC1(COC(=O)CCC(=O)O)C(=O)N(c2ccccc2)N(c2ccccc2)C1=O [Suxibuzone] | 0 | 0 | 0 | 0 | 0 | 0 |  |  |  |  |  | 
